ChEMBL document CHEMBL1154426, “In vitro susceptibilities of Mycoplasma putrefaciens field isolates” (2007)
In brackets after ≈: the same amount, converted by molar mass.

Assays:
Format in all cases: functional
Mycoplasma putrefaciens [1] = test: Antimicrobial activity against Mycoplasma putrefaciens KS1 after 24 hrs by twofold serial dilution method
Mycoplasma putrefaciens [2] = test: Antimicrobial activity against Mycoplasma putrefaciens Jordanian isolates after 24 hrs by twofold serial dilution method
Mycoplasma putrefaciens [3] = test: Antimicrobial activity against Mycoplasma putrefaciens French isolates after 24 hrs by twofold serial dilution method

| Compound | MIC (Mycoplasma putrefaciens [1]) [µg/mL] | MIC50 (Mycoplasma putrefaciens [2]) [µg/mL] | MIC90 (Mycoplasma putrefaciens [2]) [µg/mL] | MIC50 (Mycoplasma putrefaciens [3]) [µg/mL] | MIC90 (Mycoplasma putrefaciens [3]) [µg/mL] | MIC (Mycoplasma putrefaciens [1]; KS1, 24 h) [µg/mL] |
| --- | --- | --- | --- | --- | --- | --- |
| GENTAMICIN | 64 | 32 | 32 | 64 | 64 |  |
| CCN1CCN(c2cc3c(cc2F)c(=O)c(C(=O)O)cn3C2CC2)CC1 [ENROFLOXACIN] |  | 0.125 (≈ 0.348 µM) | 0.125 (≈ 0.348 µM) | 0.125 (≈ 0.348 µM) | 0.25 (≈ 0.696 µM) | 0.125 (≈ 0.348 µM) |
| SPIRAMYCIN | 0.25 | 0.125 | 0.25 | 0.25 | 0.5 |  |
| CC[C@H]1OC(=O)[C@H](C)[C@@H](O[C@H]2C[C@@](C)(OC)[C@@H](O)[C@H](C)O2)[C@H](C)[C@@H](O[C@@H]2O[C@H](C)C[C@H](N(C)C)[C@H]2O)[C@](C)(O)C[C@@H](C)C(=O)[C@H](C)[C@@H](O)[C@]1(C)O [ERYTHROMYCIN] |  | 0.03 (≈ 0.0409 µM) | 0.03 (≈ 0.0409 µM) | 0.03 (≈ 0.0409 µM) | 0.125 (≈ 0.17 µM) | 0.03 (≈ 0.0409 µM) |
| CN(C)[C@@H]1C(O)=C(C(N)=O)C(=O)[C@@]2(O)C(O)=C3C(=O)c4c(O)ccc(Cl)c4[C@@](C)(O)[C@H]3C[C@@H]12 [CHLORTETRACYCLINE] |  | 4 (≈ 8.35 µM) | 4 (≈ 8.35 µM) | 8 (≈ 16.7 µM) | 16 (≈ 33.4 µM) | 4 (≈ 8.35 µM) |
| CCC[C@@H]1C[C@@H](C(=O)N[C@@H]([C@H]2O[C@H](SC)[C@H](O)[C@@H](O)[C@H]2O)[C@@H](C)O)N(C)C1 [LINCOMYCIN] |  | 0.5 (≈ 1.23 µM) | 1 (≈ 2.46 µM) | 1 (≈ 2.46 µM) | 2 (≈ 4.92 µM) | 1 (≈ 2.46 µM) |
| CC[C@H]1OC(=O)C[C@@H](O)[C@H](C)[C@@H](O[C@@H]2O[C@H](C)[C@@H](O[C@H]3C[C@@](C)(O)[C@@H](O)[C@H](C)O3)[C@H](N(C)C)[C@H]2O)[C@@H](CC=O)C[C@@H](C)C(=O)/C=C/C(C)=C/[C@@H]1CO[C@@H]1O[C@H](C)[C@@H](O)[C@@H](OC)[C@H]1OC [TYLOSIN] |  | 0.015 (≈ 0.0164 µM) | 0.015 (≈ 0.0164 µM) | 0.03 (≈ 0.0327 µM) | 0.06 (≈ 0.0655 µM) | 0.06 (≈ 0.0655 µM) |
| O=C(O)c1cn(C2CC2)c2cc(N3CCNCC3)c(F)cc2c1=O [CIPROFLOXACIN] |  | 0.25 (≈ 0.754 µM) | 0.25 (≈ 0.754 µM) | 0.25 (≈ 0.754 µM) | 0.5 (≈ 1.51 µM) | 0.25 (≈ 0.754 µM) |
| CCn1cc(C(=O)O)c(=O)c2cc(F)c(N3CCNCC3)cc21 [NORFLOXACIN] |  | 2 (≈ 6.26 µM) | 2 (≈ 6.26 µM) | 2 (≈ 6.26 µM) | 4 (≈ 12.5 µM) | 2 (≈ 6.26 µM) |
| CN[C@@H]1[C@H](O[C@H]2[C@H](O[C@H]3[C@H](O)[C@@H](O)[C@H](N=C(N)N)[C@@H](O)[C@@H]3N=C(N)N)O[C@@H](C)[C@]2(O)C=O)O[C@@H](CO)[C@H](O)[C@H]1O [STREPTOMYCIN] |  | 32 (≈ 55 µM) | 32 (≈ 55 µM) | 32 (≈ 55 µM) | 64 (≈ 110 µM) | 64 (≈ 110 µM) |
| CCn1cc(C(=O)O)c(=O)c2ccc(C)nc21 [NALIDIXIC ACID] |  | > 256 | > 256 | > 256 | > 256 | 512 (≈ 2200 µM) |
| C[C@H]1c2cccc(O)c2C(=O)C2=C(O)[C@]3(O)C(=O)C(C(N)=O)=C(O)[C@@H](N(C)C)[C@@H]3[C@@H](O)[C@@H]21.O [DOXYCYCLINE] |  | 0.125 | 0.25 | 0.25 | 2 | 0.03 |
| CN(C)[C@@H]1C(O)=C(C(N)=O)C(=O)[C@@]2(O)C(O)=C3C(=O)c4c(O)cccc4[C@@](C)(O)[C@H]3[C@H](O)[C@@H]12 [OXYTETRACYCLINE] |  | 0.5 (≈ 1.09 µM) | 0.5 (≈ 1.09 µM) | 1 (≈ 2.17 µM) | 4 (≈ 8.69 µM) | 0.5 (≈ 1.09 µM) |
| O=C(N[C@H](CO)[C@H](O)c1ccc([N+](=O)[O-])cc1)C(Cl)Cl [CHLORAMPHENICOL] |  | 2 (≈ 6.19 µM) | 4 (≈ 12.4 µM) | 4 (≈ 12.4 µM) | 4 (≈ 12.4 µM) | 4 (≈ 12.4 µM) |
| CN[C@@H]1[C@H](O)[C@H](NC)[C@H]2O[C@@]3(O)C(=O)C[C@@H](C)O[C@H]3O[C@@H]2[C@H]1O [SPECTINOMYCIN] |  | 16 (≈ 48.1 µM) | 32 (≈ 96.3 µM) | 16 (≈ 48.1 µM) | 16 (≈ 48.1 µM) | 32 (≈ 96.3 µM) |
